Paper PMC9329436, “Optimization of the 4-anilinoquin(az)oline scaffold as epidermal growth factor receptor (EGFR) inhibitors for chordoma utilizing a toxicology profiling assay platform” (Scientific Reports, 2022)
Like-named read-outs stand apart in the source and are kept apart here.

Assays:
Format in all cases: biochemical
[1] = target: T1, 320 wild-type protein kinases (Homo sapiens, UniProt Q96PF2); settings: kinase TSK2, singlicate
T1 sequence (Q96PF2 1-358): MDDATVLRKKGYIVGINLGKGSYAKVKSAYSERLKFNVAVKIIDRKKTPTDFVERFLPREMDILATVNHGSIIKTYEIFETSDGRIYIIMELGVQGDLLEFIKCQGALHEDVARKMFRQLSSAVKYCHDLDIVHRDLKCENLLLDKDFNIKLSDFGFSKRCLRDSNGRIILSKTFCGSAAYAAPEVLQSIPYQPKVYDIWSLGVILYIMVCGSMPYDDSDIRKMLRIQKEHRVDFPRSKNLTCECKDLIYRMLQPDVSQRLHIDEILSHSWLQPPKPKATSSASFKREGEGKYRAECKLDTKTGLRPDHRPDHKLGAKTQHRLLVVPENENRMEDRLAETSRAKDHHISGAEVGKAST
Text: (§1) Table S4. Profiling of two compounds at two concentrations against 320 wild-type protein kinases; singlicate measurement; Residual activities (% of control).

[2] = target: 320 wild-type protein kinases (Homo sapiens, UniProt P49336); settings: CDK8/CycC, singlicate
Text: as §1

[3] = target: 320 wild-type protein kinases (Homo sapiens, UniProt Q16620); settings: kinase TRK-B, singlicate
Sequence of 320 wild-type protein kinases (Homo sapiens, UniProt Q16620) (Q16620 32-822): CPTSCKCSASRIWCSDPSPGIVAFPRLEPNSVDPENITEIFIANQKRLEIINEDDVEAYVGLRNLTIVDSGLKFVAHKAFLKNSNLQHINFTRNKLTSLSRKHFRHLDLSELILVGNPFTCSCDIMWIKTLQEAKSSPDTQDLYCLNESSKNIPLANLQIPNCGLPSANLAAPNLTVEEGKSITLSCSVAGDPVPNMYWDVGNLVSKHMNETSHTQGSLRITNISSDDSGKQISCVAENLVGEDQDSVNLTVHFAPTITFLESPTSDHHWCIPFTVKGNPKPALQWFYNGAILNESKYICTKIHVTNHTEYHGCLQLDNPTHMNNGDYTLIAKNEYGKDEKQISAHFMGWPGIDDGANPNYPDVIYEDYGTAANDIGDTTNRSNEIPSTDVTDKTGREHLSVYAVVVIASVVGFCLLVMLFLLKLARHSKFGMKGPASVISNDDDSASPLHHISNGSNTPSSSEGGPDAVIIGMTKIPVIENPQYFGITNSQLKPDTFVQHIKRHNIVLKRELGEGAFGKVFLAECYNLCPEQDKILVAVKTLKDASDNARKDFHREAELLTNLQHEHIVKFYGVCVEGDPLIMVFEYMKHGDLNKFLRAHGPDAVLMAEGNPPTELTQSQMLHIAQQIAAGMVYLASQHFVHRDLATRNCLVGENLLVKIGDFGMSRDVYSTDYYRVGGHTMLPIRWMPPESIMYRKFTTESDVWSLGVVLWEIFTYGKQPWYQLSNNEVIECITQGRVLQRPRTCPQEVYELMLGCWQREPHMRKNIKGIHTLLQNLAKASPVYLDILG
Text: as §1

[4] = target: 320 wild-type protein kinases (Homo sapiens, UniProt P22607); settings: singlicate
Sequence of 320 wild-type protein kinases (Homo sapiens, UniProt P22607) (P22607 23-806): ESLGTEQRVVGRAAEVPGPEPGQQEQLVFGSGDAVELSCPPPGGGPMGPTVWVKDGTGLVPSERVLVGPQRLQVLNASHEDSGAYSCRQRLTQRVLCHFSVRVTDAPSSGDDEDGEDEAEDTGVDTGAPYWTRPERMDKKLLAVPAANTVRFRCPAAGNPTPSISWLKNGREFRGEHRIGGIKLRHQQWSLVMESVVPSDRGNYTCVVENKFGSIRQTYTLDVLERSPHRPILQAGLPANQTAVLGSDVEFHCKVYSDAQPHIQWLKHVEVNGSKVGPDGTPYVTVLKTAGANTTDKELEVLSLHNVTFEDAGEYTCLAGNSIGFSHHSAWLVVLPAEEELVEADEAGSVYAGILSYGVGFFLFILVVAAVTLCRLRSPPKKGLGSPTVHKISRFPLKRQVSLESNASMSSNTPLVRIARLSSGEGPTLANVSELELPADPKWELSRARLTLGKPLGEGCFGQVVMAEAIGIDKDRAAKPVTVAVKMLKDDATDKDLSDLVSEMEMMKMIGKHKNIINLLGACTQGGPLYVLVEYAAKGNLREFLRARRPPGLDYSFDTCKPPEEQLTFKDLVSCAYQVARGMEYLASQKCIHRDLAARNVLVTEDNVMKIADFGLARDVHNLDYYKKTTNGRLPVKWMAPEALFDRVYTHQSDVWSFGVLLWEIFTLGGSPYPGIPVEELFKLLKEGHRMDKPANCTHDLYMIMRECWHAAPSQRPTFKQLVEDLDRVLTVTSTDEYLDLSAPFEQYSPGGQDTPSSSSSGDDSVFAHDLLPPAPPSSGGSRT
Text: as §1

[5] = target: 320 wild-type protein kinases (Homo sapiens, UniProt P51812); settings: kinase RPS6KA3, singlicate
Sequence of 320 wild-type protein kinases (Homo sapiens, UniProt P51812) (P51812 whole entry): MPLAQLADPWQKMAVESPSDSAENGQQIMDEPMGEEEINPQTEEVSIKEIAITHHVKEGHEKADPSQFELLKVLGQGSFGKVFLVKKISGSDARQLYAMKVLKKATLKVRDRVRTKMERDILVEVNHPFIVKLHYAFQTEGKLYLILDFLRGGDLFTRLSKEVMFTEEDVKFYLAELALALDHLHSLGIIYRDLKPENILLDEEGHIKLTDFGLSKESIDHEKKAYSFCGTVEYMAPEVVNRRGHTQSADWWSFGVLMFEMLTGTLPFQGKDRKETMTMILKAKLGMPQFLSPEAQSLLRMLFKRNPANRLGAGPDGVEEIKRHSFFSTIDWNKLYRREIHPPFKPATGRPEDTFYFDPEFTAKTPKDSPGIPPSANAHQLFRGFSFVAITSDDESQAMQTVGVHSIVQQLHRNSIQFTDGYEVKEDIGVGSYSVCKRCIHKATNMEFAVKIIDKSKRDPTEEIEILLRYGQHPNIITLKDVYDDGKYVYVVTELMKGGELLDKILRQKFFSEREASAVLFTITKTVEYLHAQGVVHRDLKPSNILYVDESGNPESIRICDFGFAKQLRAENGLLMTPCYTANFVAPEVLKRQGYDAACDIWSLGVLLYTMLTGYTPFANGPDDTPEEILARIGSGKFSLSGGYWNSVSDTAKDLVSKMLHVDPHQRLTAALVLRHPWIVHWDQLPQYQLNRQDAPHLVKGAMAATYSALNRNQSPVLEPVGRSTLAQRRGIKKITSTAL
Text: as §1

[6] = target: T2, 320 wild-type protein kinases (Homo sapiens, UniProt Q13163); settings: singlicate
T2 sequence (Q13163 1-448): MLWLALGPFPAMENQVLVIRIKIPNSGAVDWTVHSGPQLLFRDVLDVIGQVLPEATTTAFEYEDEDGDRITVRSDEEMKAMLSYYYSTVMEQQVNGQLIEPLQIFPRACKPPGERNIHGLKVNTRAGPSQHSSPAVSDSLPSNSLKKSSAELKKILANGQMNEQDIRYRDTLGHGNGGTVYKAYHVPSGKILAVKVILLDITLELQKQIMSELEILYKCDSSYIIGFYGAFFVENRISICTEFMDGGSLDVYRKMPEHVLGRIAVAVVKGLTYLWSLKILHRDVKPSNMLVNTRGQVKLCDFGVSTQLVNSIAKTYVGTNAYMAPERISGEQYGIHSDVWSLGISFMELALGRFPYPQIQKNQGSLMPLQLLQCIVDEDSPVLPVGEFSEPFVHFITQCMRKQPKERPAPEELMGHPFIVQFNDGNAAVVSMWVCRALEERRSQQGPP
Text: as §1

[7] = target: T3, 320 wild-type protein kinases (Homo sapiens, UniProt Q8TDC3); settings: singlicate
T3 sequence (Q8TDC3 1-778): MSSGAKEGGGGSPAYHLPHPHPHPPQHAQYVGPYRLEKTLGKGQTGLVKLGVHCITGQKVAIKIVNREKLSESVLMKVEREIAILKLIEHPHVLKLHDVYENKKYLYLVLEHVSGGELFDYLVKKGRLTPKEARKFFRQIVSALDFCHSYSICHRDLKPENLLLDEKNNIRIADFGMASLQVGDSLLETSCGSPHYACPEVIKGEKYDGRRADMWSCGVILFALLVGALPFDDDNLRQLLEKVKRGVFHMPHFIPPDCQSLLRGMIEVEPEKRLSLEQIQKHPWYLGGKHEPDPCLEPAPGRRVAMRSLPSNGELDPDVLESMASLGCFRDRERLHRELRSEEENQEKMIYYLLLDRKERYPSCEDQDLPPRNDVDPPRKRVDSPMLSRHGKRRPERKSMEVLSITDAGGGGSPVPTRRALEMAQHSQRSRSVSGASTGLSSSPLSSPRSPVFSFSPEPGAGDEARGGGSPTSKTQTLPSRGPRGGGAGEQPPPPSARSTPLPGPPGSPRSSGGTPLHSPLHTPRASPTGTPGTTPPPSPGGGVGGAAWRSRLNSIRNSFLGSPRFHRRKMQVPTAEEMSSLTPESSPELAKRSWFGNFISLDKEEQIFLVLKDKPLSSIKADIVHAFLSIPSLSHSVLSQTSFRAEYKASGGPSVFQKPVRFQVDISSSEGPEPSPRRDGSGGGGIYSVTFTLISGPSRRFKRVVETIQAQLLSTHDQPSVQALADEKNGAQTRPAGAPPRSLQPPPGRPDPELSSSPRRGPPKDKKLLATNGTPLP
Text: as §1

[8] = target: 320 wild-type protein kinases (Homo sapiens, UniProt Q9BYP7); settings: kinase WNK3, singlicate
Sequence of 320 wild-type protein kinases (Homo sapiens, UniProt Q9BYP7) (Q9BYP7 whole entry): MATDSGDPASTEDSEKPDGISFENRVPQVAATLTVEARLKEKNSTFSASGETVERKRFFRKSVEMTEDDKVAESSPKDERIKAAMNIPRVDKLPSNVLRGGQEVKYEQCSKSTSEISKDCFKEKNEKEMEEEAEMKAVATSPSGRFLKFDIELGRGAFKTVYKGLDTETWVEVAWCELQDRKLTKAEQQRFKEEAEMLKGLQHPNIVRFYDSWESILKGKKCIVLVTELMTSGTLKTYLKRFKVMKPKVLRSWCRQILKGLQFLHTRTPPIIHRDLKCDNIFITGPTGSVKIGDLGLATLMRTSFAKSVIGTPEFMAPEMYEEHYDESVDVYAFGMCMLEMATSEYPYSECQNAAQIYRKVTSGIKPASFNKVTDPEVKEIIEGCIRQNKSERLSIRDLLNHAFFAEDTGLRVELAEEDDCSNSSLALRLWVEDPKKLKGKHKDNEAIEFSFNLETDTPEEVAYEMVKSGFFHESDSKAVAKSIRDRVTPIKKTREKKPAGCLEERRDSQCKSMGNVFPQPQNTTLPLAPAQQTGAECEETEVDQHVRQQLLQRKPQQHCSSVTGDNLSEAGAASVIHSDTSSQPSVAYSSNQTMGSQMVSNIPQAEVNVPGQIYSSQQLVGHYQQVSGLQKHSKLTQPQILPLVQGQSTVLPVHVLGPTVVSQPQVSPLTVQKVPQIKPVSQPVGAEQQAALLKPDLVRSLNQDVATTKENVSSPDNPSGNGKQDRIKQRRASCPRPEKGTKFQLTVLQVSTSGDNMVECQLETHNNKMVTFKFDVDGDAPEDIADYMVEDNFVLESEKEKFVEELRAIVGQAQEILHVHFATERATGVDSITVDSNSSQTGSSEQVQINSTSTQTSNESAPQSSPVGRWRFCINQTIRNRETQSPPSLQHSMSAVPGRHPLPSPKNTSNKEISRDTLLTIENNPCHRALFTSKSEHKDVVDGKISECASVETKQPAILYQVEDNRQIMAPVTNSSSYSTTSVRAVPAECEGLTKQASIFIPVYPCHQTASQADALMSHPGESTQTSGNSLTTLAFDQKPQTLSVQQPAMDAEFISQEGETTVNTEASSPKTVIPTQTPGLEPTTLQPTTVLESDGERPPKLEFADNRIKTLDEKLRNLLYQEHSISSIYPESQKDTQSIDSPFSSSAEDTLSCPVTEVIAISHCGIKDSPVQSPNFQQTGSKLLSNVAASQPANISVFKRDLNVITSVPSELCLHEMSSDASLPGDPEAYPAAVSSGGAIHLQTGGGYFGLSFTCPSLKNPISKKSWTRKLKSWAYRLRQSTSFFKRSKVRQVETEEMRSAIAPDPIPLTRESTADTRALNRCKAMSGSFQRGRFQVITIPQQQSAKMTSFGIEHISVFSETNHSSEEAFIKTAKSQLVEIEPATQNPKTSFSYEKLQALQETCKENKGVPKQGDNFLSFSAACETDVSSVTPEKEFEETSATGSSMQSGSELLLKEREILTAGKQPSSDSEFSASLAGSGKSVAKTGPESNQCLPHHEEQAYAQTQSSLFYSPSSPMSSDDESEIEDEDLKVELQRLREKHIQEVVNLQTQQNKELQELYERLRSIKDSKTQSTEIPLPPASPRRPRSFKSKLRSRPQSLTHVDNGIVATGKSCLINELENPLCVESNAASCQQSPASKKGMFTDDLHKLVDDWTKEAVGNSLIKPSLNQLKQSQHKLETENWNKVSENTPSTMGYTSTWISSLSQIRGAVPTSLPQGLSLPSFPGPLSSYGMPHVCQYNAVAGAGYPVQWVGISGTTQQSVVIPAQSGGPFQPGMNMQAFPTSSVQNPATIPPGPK
Text: as §1

[9] = target: 320 wild-type protein kinases (Homo sapiens, UniProt P07332); settings: FES, singlicate
Sequence of 320 wild-type protein kinases (Homo sapiens, UniProt P07332) (P07332 whole entry): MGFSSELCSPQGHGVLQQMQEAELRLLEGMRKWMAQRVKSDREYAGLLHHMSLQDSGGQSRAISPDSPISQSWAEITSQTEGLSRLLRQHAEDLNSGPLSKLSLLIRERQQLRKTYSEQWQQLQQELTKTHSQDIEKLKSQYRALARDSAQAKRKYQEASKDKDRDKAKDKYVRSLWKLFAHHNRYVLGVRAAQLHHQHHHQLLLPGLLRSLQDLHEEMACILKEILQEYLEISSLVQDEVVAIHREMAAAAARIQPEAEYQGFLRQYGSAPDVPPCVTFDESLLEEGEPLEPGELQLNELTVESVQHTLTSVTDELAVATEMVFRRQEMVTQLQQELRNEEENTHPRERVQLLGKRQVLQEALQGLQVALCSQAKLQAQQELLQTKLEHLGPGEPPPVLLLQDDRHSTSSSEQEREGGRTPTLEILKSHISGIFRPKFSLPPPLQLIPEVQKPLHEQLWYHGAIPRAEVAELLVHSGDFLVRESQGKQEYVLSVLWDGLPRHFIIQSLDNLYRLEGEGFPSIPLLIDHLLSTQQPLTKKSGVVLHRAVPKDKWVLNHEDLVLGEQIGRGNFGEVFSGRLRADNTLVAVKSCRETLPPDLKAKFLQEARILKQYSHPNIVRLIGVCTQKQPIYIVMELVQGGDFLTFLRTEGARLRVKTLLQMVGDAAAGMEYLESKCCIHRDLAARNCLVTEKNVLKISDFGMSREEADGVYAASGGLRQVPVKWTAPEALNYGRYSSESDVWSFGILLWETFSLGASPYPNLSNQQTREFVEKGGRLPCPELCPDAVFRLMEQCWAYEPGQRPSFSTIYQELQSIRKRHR
Text: as §1

[10] = target: 320 wild-type protein kinases (Homo sapiens, UniProt P49137); settings: singlicate
Text: as §1

[11] = target: T4, 320 wild-type protein kinases (Homo sapiens, UniProt Q9BXA7); settings: kinase TSSK1, singlicate
T4 sequence (Q9BXA7 1-367): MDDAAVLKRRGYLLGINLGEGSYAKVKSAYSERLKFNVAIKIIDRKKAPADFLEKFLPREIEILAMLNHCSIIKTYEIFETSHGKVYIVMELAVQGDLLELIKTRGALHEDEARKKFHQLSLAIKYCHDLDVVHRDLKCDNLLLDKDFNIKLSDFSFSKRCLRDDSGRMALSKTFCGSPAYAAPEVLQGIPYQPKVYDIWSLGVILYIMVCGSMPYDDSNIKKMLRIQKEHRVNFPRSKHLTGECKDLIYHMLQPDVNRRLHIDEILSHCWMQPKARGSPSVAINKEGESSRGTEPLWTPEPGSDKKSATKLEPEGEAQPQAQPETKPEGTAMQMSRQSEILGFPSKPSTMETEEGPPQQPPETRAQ
Text: as §1

| Compound | Residual activity, TSK2 ([1]; assay conc. 1.0E-06 M) | Residual activity, TSK2 ([1]; assay conc. 1.0E-07 M) | Residual activity ([2]; 1.0E-06 M) | Residual activity ([2]; 1.0E-07 M) | Residual activity, TRK-B ([3]; assay conc. 1.0E-06 M) | Residual activity, TRK-B ([3]; assay conc. 1.0E-07 M) | Residual activity ([4]; FGF-R3, 1.0E-06 M) | Residual activity ([4]; FGF-R3, 1.0E-07 M) | Residual activity, RPS6KA3 ([5]; assay conc. 1.0E-06 M) | Residual activity, RPS6KA3 ([5]; assay conc. 1.0E-07 M) | Residual activity ([6]; MEK5, 1.0E-06 M) | Residual activity ([6]; MEK5, 1.0E-07 M) | Residual activity ([7]; BRSK1, 1.0E-06 M) | Residual activity ([7]; BRSK1, 1.0E-07 M) | Residual activity, WNK3 ([8]; assay conc. 1.0E-06 M) | Residual activity, WNK3 ([8]; assay conc. 1.0E-07 M) | Residual activity ([9]; 1.0E-06 M) | Residual activity ([9]; 1.0E-07 M) | Residual activity, TSSK1 ([11]; assay conc. 1.0E-06 M) | Residual activity, TSSK1 ([11]; assay conc. 1.0E-07 M) | further results |
| --- | --- | --- | --- | --- | --- | --- | --- | --- | --- | --- | --- | --- | --- | --- | --- | --- | --- | --- | --- | --- | --- |
| C#Cc1cc(Nc2ncnc3cc(I)ccc23)ccc1Cl [Compound 41] | 123 % of control | 113 % of control | 92 % of control | 91 % of control | 98 % of control | 107 % of control | 93 % of control | 99 % of control | 96 % of control | 99 % of control | 100 % of control | 103 % of control | 91 % of control | 100 % of control | 115 % of control | 118 % of control | 93 % of control | 118 % of control | 105 % of control | 142 % of control | Residual activity ([10]; MAPKAPK2, 1.0E-07 M): 139 % of control |
| C#Cc1cc(Nc2ncnc3cc(OC)c(OC)cc23)ccc1Cl [Compound 45] | 331 % of control | 109 % of control | 95 % of control | 97 % of control | 97 % of control | 98 % of control | 70 % of control | 79 % of control | 115 % of control | 119 % of control | 108 % of control | 107 % of control | 97 % of control | 89 % of control | 105 % of control | 124 % of control | 97 % of control | 107 % of control | 111 % of control | 127 % of control | Residual activity ([10]; MAPKAPK2, 1.0E-06 M): 138 % of control |
